Results on 21 molecules are retold here after US20260243940A1, “COMPOUND, POLYMERIZABLE COMPOSITION, CURED PRODUCT, OPTICAL FILM, POLARIZING PLATE, AND IMAGE DISPLAY DEVICE” (FUJIFILM Corporation, priority 2019, published 2026).

A short description of data set [1]: Precipitation suppression (recrystallization temperature on cooling, hot stage under polarizing microscope). Type of data set: physicochemical. The conditions noted are these: for Precipitation suppression: class by recrystallization temperature, heated to isotropic phase, then lowered at 5° C./min. The procedure:
Two polarizers of an optical microscope (ECLIPSE E600 POL, manufactured by Nikon Corporation) were arranged so that they were orthogonal to each other, and a sample stand was set between the two polarizers.
Then, a small amount of each synthesized compound was placed on a slide glass, and the slide glass was set on a hot stage placed on a sample stand. While observing the state of the sample with a microscope, the temperature of the hot stage was raised at 5° C./min, and the type of liquid crystal phase and the temperature at which phase transition occurred were recorded from the state of the sample.
In addition, for the recrystallization temperature, the temperature was elevated up to an isotropic phase and then lowered at 5° C./min, and a temperature at which crystals were precipitated was recorded.
Based on the results of the recrystallization temperature measured by the above-mentioned method for evaluating the phase transition temperature, the evaluation was made according to the following standard. The results are shown in Table 3 below. • A: Lower than 50° C. • B: 50° C. or higher and 100° C. or lower • C: Higher than 100° C. and 150° C. or lower • D: Higher than 150° C. and 180° C. or lower

Data set [2] can be described thus: Solubility in cyclopentanone. Type of data set: physicochemical. The conditions noted are these: for Solubility: heated and stirred at 50° C. for 1 minute, left at 20° C. for 10 minutes, concentration lowered from 40% in 5% steps. The procedure: Cyclopentanone was added to 25 mg of each synthesized compound so that the concentration of each compound was 40% by mass, and the mixture was heated and stirred at 50° C. for 1 minute.
Then, the mixture was left to stand at 20° C. for 10 minutes, and in a case where there is no undissolved residue or precipitation, it is determined that the mixture can be dissolved at 40% by mass.
In a case where there was an undissolved residue or precipitation, cyclopentanone was further added to the mixture to reduce the concentration by 5% by mass, an operation of heating and stirring at 50° C. for 1 minute and then leaving the mixture stand at 20° C. for 10 minutes was repeatedly performed until there was no undissolved residue or precipitation, thereby confirming the solubility.

In the case of `C=CC(=O)OCCCCOC(=O)C1CCC(C2CCC(C(=O)Oc3ccc(OC(=O)C4CCC(C5CCC(C(=O)OCCCCOC(=O)C=C)CC5)CC4)c4c(C)cccc34)CC2)CC1` (centres unmarked) [Compound 1-7], in data set [1], the Precipitation suppression entry is “C (Higher than 100 °C and 150 °C or lower)”. Further, the Solubility in data set [2] is 25 % by mass.

`C=CC(=O)OCCCCOC(=O)C1CCC(C2CCC(C(=O)Oc3ccc(OC(=O)C4CCC(C5CCC(C(=O)OCCCCOC(=O)C=C)CC5)CC4)c4c(OCC)cccc34)CC2)CC1` (centres unmarked) [Compound 1-8]: the Precipitation suppression entry in data set [1] is “B (50 °C or higher and 100 °C or lower)”. The molecule also showed a Solubility in data set [2] of 20 % by mass.

As to `C=CC(=O)OCCCCOC(=O)C1CCC(C2CCC(C(=O)Oc3ccc(OC(=O)C4CCC(C5CCC(C(=O)OCCCCOC(=O)C=C)CC5)CC4)c4c(OC(C)=O)cccc34)CC2)CC1` (centres unmarked) [Compound 1-11], in data set [1], the Precipitation suppression result is reported as “A (Lower than 50° C.)”. Besides, in data set [2], the Solubility came out at 35 % by mass.

Regarding `C=C(C)C(=O)OCCCCOC(=O)C1CCC(C2CCC(C(=O)Oc3ccc(OC(=O)C4CCC(C5CCC(C(=O)OCCCCOC(=O)C(=C)C)CC5)CC4)c4c(OC(C)=O)cccc34)CC2)CC1` (centres unmarked) [Compound 1-12], the Precipitation suppression entry in data set [1] is on record as “A (Lower than 50° C.)”. This molecule also displayed a Solubility in data set [2] of 35 % by mass.

Turning to `C=CC(=O)OCCCCOc1ccc(C(=O)Oc2ccc(C(=O)Oc3ccc(OC(=O)c4ccc(OC(=O)c5ccc(OCCCCOC(=O)C=C)cc5)cc4)c4c(OC(C)=O)cccc34)cc2)cc1` [Compound 2-2], the Precipitation suppression result in data set [1] was “C (Higher than 100 °C and 150 °C or lower)”. Further, in data set [2], the Solubility was determined as 15 % by mass.

On to `C=CC(=O)OCCCCOC(=O)C1CCC(C2CCC(C(=O)Oc3ccc(OC(=O)C4CCC(C5CCC(C(=O)OCCCCOC(=O)C=C)CC5)CC4)c4cc(C)ccc34)CC2)CC1` (centres unmarked) [Compound 1-6], for which the Precipitation suppression entry in data set [1] was “C (Higher than 100 °C and 150 °C or lower)”. In data set [2], this molecule showed a Solubility of 35 % by mass.

As to `C=CC(=O)OCCCCOC(=O)C1CCC(C2CCC(C(=O)Oc3ccc(OC(=O)C4CCC(C5CCC(C(=O)OCCCCOC(=O)C=C)CC5)CC4)c4c(OCC)ccc(OCC)c34)CC2)CC1` (centres unmarked) [Compound 1-16], the Precipitation suppression entry in data set [1] was “A (Lower than 50° C.)”. For the same molecule, in data set [2], the Solubility is on record as greater than 40 % by mass.

Take `C=CC(=O)OCCOCCOCCOC(=O)C1CCC(C2CCC(C(=O)Oc3ccc(OC(=O)C4CCC(C5CCC(C(=O)OCCOCCOCCOC(=O)C=C)CC5)CC4)c4c(OC(C)=O)cccc34)CC2)CC1` (centres unmarked) [Compound 1-15]: the Precipitation suppression entry in data set [1] was “A (Lower than 50° C.)”. The molecule also had a Solubility in data set [2] greater than 40 % by mass.

Turning to `C=CC(=O)OCCCCOC(=O)C1CCC(C2CCC(C(=O)Oc3ccc(OC(=O)C4CCC(C5CCC(C(=O)OCCCCOC(=O)C=C)CC5)CC4)c4ccccc34)CC2)CC1` (centres unmarked) [Compound 1-1], the Precipitation suppression entry in data set [1] was “D (Higher than 150 °C and 180 °C or lower)”. For the same molecule, the Solubility in data set [2] is given as 20 % by mass.

On to `C=CC(=O)OCCCCOC(=O)C1CCC(C2CCC(C(=O)Oc3ccc(OC(=O)C4CCC(C5CCC(C(=O)OCCCCOC(=O)C=C)CC5)CC4)c4c(OC(=O)CCl)cccc34)CC2)CC1` (centres unmarked) [Compound 2-4], for which, in data set [1], the Precipitation suppression result is “A (Lower than 50° C.)”. The molecule also gave a Solubility in data set [2] of 20 % by mass.

Turning to `C=CC(=O)OCCCCOC(=O)C1CCC(C2CCC(C(=O)Oc3ccc(OC(=O)C4CCC(C5CCC(C(=O)OCCCCOC(=O)C=C)CC5)CC4)c4c(OS(C)(=O)=O)cccc34)CC2)CC1` (centres unmarked) [Compound 2-3], in data set [1], the Precipitation suppression result is “A (Lower than 50° C.)”. This molecule yielded a Solubility in data set [2] of 25 % by mass.

In the case of `C=CC(=O)OCCCCOC(=O)C1CCC(C2CCC(C(=O)Oc3cc(C(=O)OC)c(OC(=O)C4CCC(C5CCC(C(=O)OCCCCOC(=O)C=C)CC5)CC4)c4ccccc34)CC2)CC1` (centres unmarked) [Compound 1-5], the Precipitation suppression result in data set [1] is “B (50 °C or higher and 100 °C or lower)”. Besides, the Solubility in data set [2] is greater than 40 % by mass.

Regarding `C=CC(=O)OCCCCOC(=O)C1CCC(C2CCC(C(=O)Oc3cc(OC)c(OC(=O)C4CCC(C5CCC(C(=O)OCCCCOC(=O)C=C)CC5)CC4)c4ccccc34)CC2)CC1` (centres unmarked) [Compound 1-3], the Precipitation suppression result in data set [1] is “C (Higher than 100 °C and 150 °C or lower)”. Besides, in data set [2], the Solubility stood at 20 % by mass.

`C=CC(=O)OCCCCOC(=O)C1CCC(C2CCC(C(=O)Oc3ccc(OC(=O)C4CCC(C5CCC(C(=O)OCCCCOC(=O)C=C)CC5)CC4)c4c(OC(C)=O)ccc(OC(C)=O)c34)CC2)CC1` (centres unmarked) [Compound 1-17]: the Precipitation suppression result in data set [1] was “C (Higher than 100 °C and 150 °C or lower)”. The molecule also came in with a Solubility in data set [2] of 20 % by mass.

In the case of `C=CC(=O)OCCCCOc1ccc(C(=O)Oc2ccc(OC(=O)c3ccc(OC(=O)c4ccc(OC(=O)c5ccc(OCCCCOC(=O)C=C)cc5)cc4)c(C)c3)cc2)cc1` [compound 2, reference compound], the Precipitation suppression result in data set [1] was “C (Higher than 100 °C and 150 °C or lower)”. Besides, the “precipitation suppression (in words)” value in data set [1] (summary of Table 3) was “deteriorated”. For the same molecule, the Solubility in data set [2] is given as less than 5 % by mass. Further, the “solubility (in words)” value in data set [2] (summary of Table 3) is listed as “deteriorated”.

For the molecule `C=CC(=O)OCCCCOC(=O)C1CCC(C2CCC(C(=O)Oc3cc(C)c(OC(=O)C4CCC(C5CCC(C(=O)OCCCCOC(=O)C=C)CC5)CC4)c4ccccc34)CC2)CC1` (centres unmarked) [Compound 1-2], the Precipitation suppression entry in data set [1] was “C (Higher than 100 °C and 150 °C or lower)”. In data set [2], this molecule had a Solubility of 25 % by mass.

`C=CC(=O)OCCOC(=O)C1CCC(C2CCC(C(=O)Oc3ccc(OC(=O)C4CCC(C5CCC(C(=O)OCCOC(=O)C=C)CC5)CC4)c4c(OC(C)=O)cccc34)CC2)CC1` (centres unmarked) [Compound 1-13]: the Precipitation suppression result in data set [1] is “A (Lower than 50° C.)”. Further, the Solubility in data set [2] came to 30 % by mass.

On to `C=CC(=O)OCCCCOC(=O)C1CCC(OC(=O)C2CCC(C(=O)Oc3ccc(OC(=O)C4CCC(C(=O)OC5CCC(C(=O)OCCCCOC(=O)C=C)CC5)CC4)c4ccccc34)CC2)CC1` (centres unmarked) [Compound 2-1], for which the Precipitation suppression result in data set [1] is “C (Higher than 100 °C and 150 °C or lower)”. In data set [2], this molecule showed a Solubility of 10 % by mass.

As to `C=CC(=O)OCCCCOC(=O)C1CCC(C2CCC(C(=O)Oc3cc(OCC)c(OC(=O)C4CCC(C5CCC(C(=O)OCCCCOC(=O)C=C)CC5)CC4)c4ccccc34)CC2)CC1` (centres unmarked) [Compound 1-4], the Precipitation suppression entry in data set [1] was “B (50 °C or higher and 100 °C or lower)”. Moreover, the Solubility in data set [2] was greater than 40 % by mass.

Consider `C=CC(=O)OCCCCOC(=O)C1CCC(C2CCC(C(=O)Oc3ccc(OC(=O)C4CCC(C5CCC(C(=O)OCCCCOC(=O)C=C)CC5)CC4)c4c(OCCCC)cccc34)CC2)CC1` (centres unmarked) [Compound 1-9], for which, in data set [1], the Precipitation suppression entry is on record as “A (Lower than 50° C.)”. In data set [2], the Solubility is 20 % by mass.

`C=CC(=O)OCCCCOC(=O)C1CCC(C2CCC(C(=O)Oc3ccc(OC(=O)C4CCC(C5CCC(C(=O)OCCCCOC(=O)C=C)CC5)CC4)c4c(OCCCCCCCC)cccc34)CC2)CC1` (centres unmarked) [Compound 1-10]: the Precipitation suppression result in data set [1] was “B (50 °C or higher and 100 °C or lower)”. In data set [2], this molecule registered a Solubility of 30 % by mass.
